Paper PMC6081875 (EJNMMI Research, 2018)

What was measured:
[1] = Blood time-activity curve from venous blood samples (gamma counter, bi-exponential fit); assay type: in vivo, human; conditions: blood samples 30 min, 80 min, 24, 48, 72 h p. i.; median of n = 5 patients per therapy
Experimental: (§1) Data for dosimetry were acquired during a routine 4-day in-patient stay following the radiopharmaceutical injection, in conjunction with standard clinical examinations. All patients received a 15-min one-bed abdominal SPECT scan and a 20-min whole-body planar scintigraphy at 24, 48, and 72 h post-injection (p. i.) on a dual-headed Symbia T2 SPECT/CT (Siemens Medical Solutions, Erlangen, Germany). Counts were detected for the photopeak window of 208 keV (width 15%) by the usage of a medium-energy low-penetration collimator. Two additional scatter windows were measured at 170 keV (width 15%) and 240 keV (width 10%). A low-dose AC-CT was acquired at the first image acquisition session for anatomical correlation and attenuation correction during quantitative SPECT reconstruction. For the determination of the absorbed dose to the bone marrow from the activity circulating in the blood, five venous blood samples were drawn from the site contralateral to injection at 30 and 80 min p. i. and 24, 48, and 72 h p. i..
[11, 13]. […] To derive the patient-specific blood TAC, 1 ml of blood of each sample was pipetted into a test tube and measured within a Cobra Gamma Counter (Packard Instrument Company, Inc., Meriden, CT), which has been previously calibrated via five 1-ml test samples of known activity concentration. […]

[2] = Abdominal effective half-life from sequential quantitative SPECT (mono-exponential fit); assay type: in vivo
Experimental: as §1
Quantitative SPECT images were reconstructed as described by Delker et al. via a rotation-based, penalised, one-step-late ordered subset expectation maximisation algorithm, which included corrections for scatter, attenuation, and distance-dependent geometrical collimator blur. Attenuation correction was performed for each SPECT scan via the AC-CT, which was acquired along with the SPECT scan 24 h post-injection. To apply the attenuation correction, especially to the SPECT scans 48 and 72 h p. i., the single AC-CT was co-registered onto an initial SPECT reconstruction without attenuation correction by using a rigid body co-registration algorithm with six degrees of freedom (PMOD Version 3.609, PMOD Technologies, Zurich, Switzerland). If only one AC-CT is acquired for sequential SPECT imaging, special care has to be taken to minimise misregistration between SPECT images and separately acquired CT scans, as such a misalignment can distort the proper attenuation correction and, thus, activity quantification. This is in principal also true for serial SPECT and CT imaging, as even within a single image acquisition session patient movements cannot be entirely avoided. Scatter correction employed the triple energy window (TEW) method. Correction for distance-dependent collimator blur made use of a Gaussian blur model. Corrections for partial volume effects and dead time were not applied. For conversion of the measured counts per second and per voxel to Becquerel per millilitre, an appropriate calibration factor was determined. Therefore, we used a large cylinder of approximately 20 cm diameter, which was filled with a known activity concentration and which has been imaged and reconstructed via the same protocol.
(§2) First, the abdominal effective decay constant λSPECT was derived via a mono-exponential fit to the total activity in the SPECT scans 24, 48, and 72 h post-therapy. Especially, all organs and all tumours were included in the fitting of the TAC, as it was the case for the determination of A~WB from the reference protocol. This effective decay constant λSPECT serves as a surrogate for the reference-protocol-based whole-body effective decay constant (Fig. 2). The mono-exponential SPECT-based abdominal TAC was then scaled with a chosen base point. This base point is defined via the whole-body activity AWB(t^∗) of a single whole-body planar image acquired at an arbitrary time point t^∗∈ 24, 48, or 72 h post-therapy. The resulting pseudo-whole-body TAC AWB, pseudo(t) is intended to serve as an estimate of the reference-protocol-based whole-body TAC (Eq. (7.1)) and can be further used to determine a pseudo-whole-body time-integrated activity A~WB,pseudo (Eq. (7.2)).

bone marrow = assay: Bone marrow dosimetry, hybrid protocol (HP): sequential abdominal quantitative SPECT scaled with a single whole-body planar image; assay type: in vivo, human
Experimental: The proposed hybrid protocol (HP) uses a single whole-body image and sequential single-bed quantitative SPECT acquisitions of the abdomen to determine the ROB TAC, instead of deriving the ROB TAC from sequential whole-body planar imaging.
as §2, with “This effective decay constant λSPECT serves as a surrogate for the reference-protocol-based whole-body effective decay constant (Fig. 2).” left out
7.1 AWB,pseudot=AWB,pseudot^∗∙exp−λSPECT∙t−t^∗, 7.2 A~WB,pseudo=∫t=0∞AWB,pseudot^′dt^′=AWBt^∗∙expλSPECT∙t^∗/λSPECT=AWBt^∗∙expλSPECT∙t^∗∙T1/2,SPECT/ln2.
Based on the hybrid model given in Eqs. (7.1) and (7.2), the bone marrow absorbed dose from the ROB can be estimated by Eqs. (4.1) and (4.2). In this work, we investigated a combination of the sequential abdominal SPECT with the whole-body planar images at 24, 48, or 72 h p. i., where each whole-body planar image was individually calibrated via the quantitative SPECT at the corresponding time point (Fig. 2). These different hybrid protocols were further denoted as HP24, HP48, and HP72. The agreement of the bone marrow absorbed doses from the ROB, as determined via the HP and the RP, was assessed. Therefore, the percentage deviation between absorbed dose estimates (PDdose; Eq. (8)) was calculated, and a statistical test for correlation was performed (MATLAB Pearson correlation analysis).
Furthermore, the same analysis was performed regarding the total bone marrow absorbed dose estimates composed of all available constituents: the ROB (including tumours), the explicitly analysed organs, and the contribution of the blood activity.

[3] = mono-exponential fit to total activity in abdominal SPECT 24, 48, 72 h p. i., median of n = 5 patients per therapy

## O=C(O)CC[C@H](NC(=O)N[C@@H](CCCCNC(=O)[C@H](Cc1ccc2ccccc2c1)NC(=O)[C@H]1CC[C@H](CNC(=O)CN2CCN(CC(=O)O)CCN(CC(=O)O)CCN(CC(=O)O)CC2)CC1)C(=O)O)C(=O)O [Lu-177-PSMA-617, Lu-177-DKFZ-PSMA-617, metal not drawn]
[1]
  effective half-life for the slow phase of the bi-exponential fit to the blood time-activity measurements: 14 h
[2]; [3]
  T1/2, SPECT, SPECT-based abdominal effective half-life: 42 h
[2]; mono-exponential fit, abdominal SPECT 24, 48, 72 h p. i., patient P6 (mCRPC)
  T1/2, SPECT, SPECT-based abdominal effective half-life: 33 h
[2]; mono-exponential fit, abdominal SPECT 24, 48, 72 h p. i., patient P7 (mCRPC)
  T1/2, SPECT, SPECT-based abdominal effective half-life: 50 h
[2]; mono-exponential fit, abdominal SPECT 24, 48, 72 h p. i., patient P8 (mCRPC)
  T1/2, SPECT, SPECT-based abdominal effective half-life: 67 h
[2]; mono-exponential fit, abdominal SPECT 24, 48, 72 h p. i., patient P9 (mCRPC)
  T1/2, SPECT, SPECT-based abdominal effective half-life: 31 h
[2]; mono-exponential fit, abdominal SPECT 24, 48, 72 h p. i., patient P10 (mCRPC)
  T1/2, SPECT, SPECT-based abdominal effective half-life: 42 h
Bone marrow; single whole-body planar image 24 h p. i., median of n = 5 patients per therapy
  DBM ← total HP24, total bone marrow absorbed dose: 11.3 mGy/GBq
Bone marrow; single whole-body planar image 48 h p. i., median of n = 5 patients per therapy
  DBM ← total HP48, total bone marrow absorbed dose: 9.6 mGy/GBq
Bone marrow; single whole-body planar image 72 h p. i., median of n = 5 patients per therapy
  DBM ← total HP72, total bone marrow absorbed dose: 10.1 mGy/GBq
Bone marrow; whole-body planar image 24 h p. i., patient P6 (mCRPC, 3718 MBq)
  DBM ← total HP24, total bone marrow absorbed dose: 11.3 mGy/GBq
Bone marrow; whole-body planar image 24 h p. i., patient P7 (mCRPC, 3743 MBq)
  DBM ← total HP24, total bone marrow absorbed dose: 8.1 mGy/GBq
Bone marrow; whole-body planar image 24 h p. i., patient P8 (mCRPC, 3745 MBq)
  DBM ← total HP24, total bone marrow absorbed dose: 17.1 mGy/GBq
Bone marrow; whole-body planar image 24 h p. i., patient P9 (mCRPC, 3752 MBq)
  DBM ← total HP24, total bone marrow absorbed dose: 13.5 mGy/GBq
Bone marrow; whole-body planar image 24 h p. i., patient P10 (mCRPC, 3700 MBq)
  DBM ← total HP24, total bone marrow absorbed dose: 10.0 mGy/GBq
Bone marrow; whole-body planar image 48 h p. i., patient P6 (mCRPC, 3718 MBq)
  DBM ← total HP48, total bone marrow absorbed dose: 9.6 mGy/GBq
Bone marrow; whole-body planar image 48 h p. i., patient P7 (mCRPC, 3743 MBq)
  DBM ← total HP48, total bone marrow absorbed dose: 6.7 mGy/GBq
Bone marrow; whole-body planar image 48 h p. i., patient P8 (mCRPC, 3745 MBq)
  DBM ← total HP48, total bone marrow absorbed dose: 17.1 mGy/GBq
Bone marrow; whole-body planar image 48 h p. i., patient P9 (mCRPC, 3752 MBq)
  DBM ← total HP48, total bone marrow absorbed dose: 13.6 mGy/GBq
Bone marrow; whole-body planar image 48 h p. i., patient P10 (mCRPC, 3700 MBq)
  DBM ← total HP48, total bone marrow absorbed dose: 8.1 mGy/GBq
Bone marrow; whole-body planar image 72 h p. i., patient P6 (mCRPC, 3718 MBq)
  DBM ← total HP72, total bone marrow absorbed dose: 10.1 mGy/GBq
Bone marrow; whole-body planar image 72 h p. i., patient P7 (mCRPC, 3743 MBq)
  DBM ← total HP72, total bone marrow absorbed dose: 7.0 mGy/GBq
Bone marrow; whole-body planar image 72 h p. i., patient P8 (mCRPC, 3745 MBq)
  DBM ← total HP72, total bone marrow absorbed dose: 16.8 mGy/GBq
Bone marrow; whole-body planar image 72 h p. i., patient P9 (mCRPC, 3752 MBq)
  DBM ← total HP72, total bone marrow absorbed dose: 15.1 mGy/GBq
Bone marrow; whole-body planar image 72 h p. i., patient P10 (mCRPC, 3700 MBq)
  DBM ← total HP72, total bone marrow absorbed dose: 8.5 mGy/GBq

## C[C@@H](O)[C@H](NC(=O)[C@@H]1CSSC[C@H](NC(=O)[C@@H](Cc2ccccc2)NC(=O)CN2CCN(CC(=O)O)CCN(CC(=O)O)CCN(CC(=O)O)CC2)C(=O)N[C@@H](Cc2ccc(O)cc2)C(=O)N[C@H](Cc2c[nH]c3ccccc23)C(=O)N[C@@H](CCCCN)C(=O)N[C@@H]([C@@H](C)O)C(=O)N1)C(=O)O [Lu-177-Octreotate, Lu-177-[DOTA^0,Tyr^3]-Octreotate, metal not drawn]
[1]
  effective half-life for the slow phase of the bi-exponential fit to the blood time-activity measurements: 25 h
[2]; [3]
  T1/2, SPECT, SPECT-based abdominal effective half-life: 61 h
[2]; mono-exponential fit, abdominal SPECT 24, 48, 72 h p. i., patient P1 (NET)
  T1/2, SPECT, SPECT-based abdominal effective half-life: 53 h
[2]; mono-exponential fit, abdominal SPECT 24, 48, 72 h p. i., patient P2 (NET)
  T1/2, SPECT, SPECT-based abdominal effective half-life: 61 h
[2]; mono-exponential fit, abdominal SPECT 24, 48, 72 h p. i., patient P3 (NET)
  T1/2, SPECT, SPECT-based abdominal effective half-life: 56 h
[2]; mono-exponential fit, abdominal SPECT 24, 48, 72 h p. i., patient P4 (NET)
  T1/2, SPECT, SPECT-based abdominal effective half-life: 73 h
[2]; mono-exponential fit, abdominal SPECT 24, 48, 72 h p. i., patient P5 (NET)
  T1/2, SPECT, SPECT-based abdominal effective half-life: 87 h
Bone marrow; whole-body planar image 72 h p. i., patient P1 (NET, 7654 MBq)
  DBM ← total HP72, total bone marrow absorbed dose: 12.1 mGy/GBq
